Article PMC8452302 (CPT: Pharmacometrics & Systems Pharmacology, 2021)
pIC50: −log10 of the molar value. Like-named read-outs stand apart in the source and are kept apart here.

Experiments:
OATP1B1 [1] = target: T1, OATP1B1 (Homo sapiens, UniProt Q9Y6L6); assay: Static DDI risk assessment, OATP1B1 R-value; conditions: 1 + Iin,max,u/IC50; metabolite/combination additive; Imax,u for IV
T1 sequence (Q9Y6L6 1-691): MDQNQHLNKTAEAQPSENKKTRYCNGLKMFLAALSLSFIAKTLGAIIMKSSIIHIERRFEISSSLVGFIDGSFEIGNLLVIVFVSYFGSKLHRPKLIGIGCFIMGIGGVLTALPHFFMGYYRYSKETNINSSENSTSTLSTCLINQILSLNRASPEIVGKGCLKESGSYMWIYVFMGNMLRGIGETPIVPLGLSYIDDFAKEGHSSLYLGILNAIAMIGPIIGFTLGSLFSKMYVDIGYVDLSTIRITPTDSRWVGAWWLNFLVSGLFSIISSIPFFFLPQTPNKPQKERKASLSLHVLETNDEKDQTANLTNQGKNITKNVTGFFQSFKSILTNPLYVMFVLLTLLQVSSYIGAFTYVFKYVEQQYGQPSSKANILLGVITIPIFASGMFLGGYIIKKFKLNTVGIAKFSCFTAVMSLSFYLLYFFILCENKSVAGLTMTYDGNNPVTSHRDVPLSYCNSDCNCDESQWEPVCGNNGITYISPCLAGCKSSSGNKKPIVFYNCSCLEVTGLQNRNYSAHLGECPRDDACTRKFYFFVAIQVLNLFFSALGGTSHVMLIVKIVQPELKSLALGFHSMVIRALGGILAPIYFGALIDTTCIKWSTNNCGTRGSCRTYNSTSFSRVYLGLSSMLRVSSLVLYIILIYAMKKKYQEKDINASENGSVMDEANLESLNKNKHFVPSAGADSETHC

BCRP = target: T2, BCRP (Homo sapiens, UniProt Q9UNQ0); assay: In vitro BCRP inhibition, HEK293-BCRP membrane vesicles, rosuvastatin probe; assay type: biochemical
T2 sequence (Q9UNQ0 1-655): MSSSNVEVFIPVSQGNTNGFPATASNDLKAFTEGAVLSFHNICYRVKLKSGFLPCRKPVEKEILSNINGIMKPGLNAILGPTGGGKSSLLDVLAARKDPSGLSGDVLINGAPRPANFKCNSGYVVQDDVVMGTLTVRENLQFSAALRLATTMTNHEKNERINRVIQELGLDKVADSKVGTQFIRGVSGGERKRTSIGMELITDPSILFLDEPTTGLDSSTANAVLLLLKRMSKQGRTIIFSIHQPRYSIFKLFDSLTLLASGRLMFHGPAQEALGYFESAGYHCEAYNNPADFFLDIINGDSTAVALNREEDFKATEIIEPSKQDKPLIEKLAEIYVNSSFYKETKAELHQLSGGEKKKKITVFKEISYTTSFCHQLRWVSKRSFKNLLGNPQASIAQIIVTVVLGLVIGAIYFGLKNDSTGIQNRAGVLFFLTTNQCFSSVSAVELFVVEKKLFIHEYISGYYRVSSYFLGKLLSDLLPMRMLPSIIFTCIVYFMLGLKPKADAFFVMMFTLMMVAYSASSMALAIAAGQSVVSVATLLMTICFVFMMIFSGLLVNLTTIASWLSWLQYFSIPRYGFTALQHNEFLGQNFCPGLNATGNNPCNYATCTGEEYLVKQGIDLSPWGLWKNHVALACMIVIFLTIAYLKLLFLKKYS

OATP1B3 [2] = target: T3, OATP1B3 (Homo sapiens, UniProt Q9NPD5); assay: Static DDI risk assessment, OATP1B3 R-value; conditions: 1 + Iin,max,u/IC50; metabolite/combination additive; Imax,u for IV
T3 sequence (Q9NPD5 1-702): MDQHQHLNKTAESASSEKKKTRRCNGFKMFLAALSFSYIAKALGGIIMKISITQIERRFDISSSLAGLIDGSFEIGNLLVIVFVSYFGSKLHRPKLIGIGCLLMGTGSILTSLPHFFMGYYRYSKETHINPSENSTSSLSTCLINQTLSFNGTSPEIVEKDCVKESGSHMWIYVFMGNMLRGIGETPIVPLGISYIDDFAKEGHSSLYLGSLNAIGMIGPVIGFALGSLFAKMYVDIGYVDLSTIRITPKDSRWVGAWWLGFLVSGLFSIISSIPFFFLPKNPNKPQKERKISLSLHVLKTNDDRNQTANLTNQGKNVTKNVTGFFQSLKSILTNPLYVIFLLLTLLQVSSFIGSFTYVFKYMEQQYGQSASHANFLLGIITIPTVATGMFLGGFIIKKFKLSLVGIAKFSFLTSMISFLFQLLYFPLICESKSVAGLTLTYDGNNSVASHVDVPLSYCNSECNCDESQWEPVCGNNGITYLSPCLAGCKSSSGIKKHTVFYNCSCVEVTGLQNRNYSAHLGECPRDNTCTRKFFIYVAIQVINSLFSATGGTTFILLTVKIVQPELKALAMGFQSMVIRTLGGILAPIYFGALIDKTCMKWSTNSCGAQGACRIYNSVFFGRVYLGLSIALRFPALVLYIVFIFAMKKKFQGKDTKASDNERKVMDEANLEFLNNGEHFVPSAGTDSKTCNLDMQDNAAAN

[3] = cited from earlier work; for Rosuvastatin AUC ratio: observed, rosuvastatin with vs without inhibitor; for Rosuvastatin AUC ratio / Cmax ratio Observed: ref Table S1; for Cmax ratio Observed: rosuvastatin with/without inhibitor, regimens as in table row
OATP1B3 [4] = target: T3, OATP1B3; assay: In vitro OATP1B3 inhibition, transfected HEK293 cells, rosuvastatin probe; assay type: cell-based
OATP1B1 [5] = target: T1, OATP1B1; assay: In vitro OATP1B1 inhibition, transfected HEK293 cells, rosuvastatin probe; assay type: cell-based
[6] = read-out: BCRP IC50, membrane vesicles, rosuvastatin 0.2 µM probe

| Compound | 1B1 R-Value (OATP1B1 [1]) | pIC50 (BCRP) | 1B3 R-Value (OATP1B3 [2]) | Rosuvastatin AUC ratio [3] | Cmax ratio Observed [3] | pIC50 (OATP1B3 [4]) | pIC50 (OATP1B1 [5]) | pIC50 (BCRP; [6]) | IC50 at 1 min (OATP1B3 [4]; human, HEK293 cells transfected with OATP1B3, pH 7.4, probe rosuvastatin 0.3 µM) | Rosuvastatin AUC ratio ([3]; listed as darolutamide) | reduction of renal clearance of rosuvastatin ([3]; probenecid 1000 mg) |
| --- | --- | --- | --- | --- | --- | --- | --- | --- | --- | --- | --- |
| CCC(C)n1ncn(-c2ccc(N3CCN(c4ccc(OCC5COC(Cn6cncn6)(c6ccc(Cl)cc6Cl)O5)cc4)CC3)cc2)c1=O (stereo not drawn) [Itraconazole] | 1.01 | 5.49 | 1.00 | 1.26 | 1.38 | < 4.70 | 4.89 |  |  |  |  |
| Cc1ccc(C)c(OCCCC(C)(C)C(=O)O)c1 [Gemfibrozil] | 2.60 | 3.53 | 1.15 | 1.88 | 2.21 | 5.00 |  |  |  |  |  |
| CC(O)C(C)n1ncn(-c2ccc(N3CCN(c4ccc(OCC5COC(Cn6cncn6)(c6ccc(Cl)cc6Cl)O5)cc4)CC3)cc2)c1=O (stereo not drawn) [Hydroxy‐itraconazole] |  |  |  |  |  |  | 5.85 |  |  |  |  |
| COc1cc(Nc2ncc(F)c(Nc3ccc4c(n3)N(COP(=O)(O)O)C(=O)C(C)(C)O4)n2)cc(OC)c1OC [Fostamatinib] |  | 5.70 |  | 1.95 | 1.90 | 5.13 | 6.05 |  |  |  |  |
| COc1cc(Nc2ncc(F)c(Nc3ccc4c(n3)NC(=O)C(C)(C)O4)n2)cc(OC)c1OC [R406] |  |  |  |  |  |  |  | 7.19 |  |  |  |
| COC(=O)N[C@H](C(=O)N1CCC[C@H]1c1nc(-c2ccc(-c3ccc(-c4c[nH]c([C@@H]5CCCN5C(=O)[C@@H](NC(=O)OC)C(C)C)n4)cc3)cc2)c[nH]1)C(C)C [Daclatasvir] | 1.18 | 5.96 | 1.08 | 1.47 |  |  |  |  |  |  |  |
| CC(C)c1noc(N2CCC(COc3ccc(-c4ccc(S(C)(=O)=O)cc4)nc3)CC2)n1 [GSK1292263] | 1.03 | 5.52 |  | 1.39 |  |  | < 4.52 |  |  |  |  |
| CC[C@H]1OC(=O)[C@H](C)[C@@H](O[C@H]2C[C@@](C)(OC)[C@@H](O)[C@H](C)O2)[C@H](C)[C@@H](O[C@@H]2O[C@H](C)C[C@H](N(C)C)[C@H]2O)[C@](C)(OC)C[C@@H](C)C(=O)[C@H](C)[C@@H](O)[C@]1(C)O [Clarithromcyin] | 1.99 |  | 1.35 | 1.58 |  |  |  | 3.39 |  |  |  |
| O=c1ccc2ccc(OCCCCN3CCN(c4cccc5sccc45)CC3)cc2[nH]1 [Brexpiprazole] | 1.00 | 4.00 |  | 1.12 |  |  | 4.88 |  |  |  |  |
| CNC(=O)c1ccc(-c2cnc3ncc(Cc4ccc5ncccc5c4)n3n2)cc1F [Capmatinib] | 1.35 | 6.16 | 1.08 | 2.03 | 3.05 | 4.84 | 5.48 |  |  |  |  |
| CO[C@H]1/C=C/O[C@@]2(C)Oc3c(C)c(O)c4c(O)c(c(/C=N/N5CCN(C)CC5)c(O)c4c3C2=O)NC(=O)/C(C)=C\C=C\[C@H](C)[C@H](O)[C@@H](C)[C@@H](O)[C@@H](C)[C@H](OC(C)=O)[C@@H]1C [Rifampicin] | 10.20 |  | 4.65 |  |  | 6.14 | 6.54 |  |  |  |  |
| CC(C)(C)c1ccc(S(=O)(=O)Nc2ccc(Cl)cc2C(=O)c2cc[n+]([O-])cc2)cc1 [Vercirnon] | 2.02 | 5.48 |  | 0.99 |  |  | 5.68 |  |  |  |  |
| COc1ccnc(C[S+]([O-])c2nc3ccc(OC(F)F)cc3[nH]2)c1OC (stereo not drawn) [Pantoprazole] | 1.01 | 5.21 |  |  |  |  | < 3.30 |  | > 500 µM |  |  |
| COC[C@H]1C[C@@H](c2ncc(-c3ccc4c(c3)COc3cc5c(ccc6nc([C@@H]7CC[C@H](C)N7C(=O)[C@@H](NC(=O)OC)C(C)C)[nH]c65)cc3-4)[nH]2)N(C(=O)[C@H](NC(=O)OC)c2ccccc2)C1 [Velpatasvir] | 1.00 | 7.05 | 1.02 | 2.59 | 2.50 |  |  |  |  |  |  |
| C[C@](O)(COc1ccc(C#N)cc1)C(=O)Nc1ccc(C#N)c(C(F)(F)F)c1 [Enobosarm] | 1.00 | 5.96 |  | 1.18 |  |  |  |  |  |  |  |
| CC(=O)c1cc(C(=O)N[C@@H](C)Cn2ccc(-c3ccc(C#N)c(Cl)c3)n2)[nH]n1 [Keto‐darolutamide] |  |  |  |  |  |  |  | 6.25 |  |  |  |
| CCCc1nc2c(C)cc(-c3nc4ccccc4n3C)cc2n1Cc1ccc(-c2ccccc2C(=O)O)cc1 [Telmisartan] | 1.01 | 6.21 | 1.03 | 1.20 |  |  | 5.51 |  |  |  |  |
| CC1=NN(c2ccc(C)c(C)c2)C(=O)/C1=N\Nc1cccc(-c2cccc(C(=O)O)c2)c1O [Eltrombopag] | 1.01 | 6.02 | 1.10 | 1.55 |  | 5.52 | 4.56 |  |  |  |  |
| CC(O)c1cc(C(=O)N[C@@H](C)Cn2ccc(-c3ccc(C#N)c(Cl)c3)n2)[nH]n1 (stereo partly drawn) [Darolutamide] | 1.09 | 7.05 | 1.02 | 5.50 | 5.50 | 4.69 |  |  |  | > 5 |  |
| COC(=O)N[C@H](C(=O)N1CCC[C@H]1c1nc(-c2ccc3c(c2)O[C@@H](c2ccccc2)n2c-3cc3cc(-c4c[nH]c([C@@H]5CCCN5C(=O)[C@@H](NC(=O)OC)C(C)C)n4)ccc32)c[nH]1)C(C)C [Elbasvir] | 1.00 | 6.85 | 1.00 | 1.42 |  | < 5.00 | 5.11 |  |  |  |  |
| O=C(O)C[C@H]1CC[C@H](c2ccc(-c3ccc(Nc4ccc(C(F)(F)F)nc4)cn3)cc2)CC1 [Pradigastat] | 1.03 | 6.15 | 1.01 | 0.96 |  |  | 5.83 |  |  |  |  |
| CCCN(CCC)S(=O)(=O)c1ccc(C(=O)O)cc1 [Probenecid] | 1.99 | 3.67 | 1.11 |  |  | 3.47 |  |  |  |  | ~80% |
| CC[C@H](Nc1ncnc2[nH]cnc12)c1nc2cccc(F)c2c(=O)n1-c1ccccc1 [Idelalisib] | 1.19 | 4.26 |  |  |  | 5.15 | 5.50 |  |  |  |  |
